# Data: the supplement of paper PMC13380429
# What was measured:
# Settings in all cases: 72 h
# Caco-2 [1] = test: cell viability relative to DMSO; higher = less toxic
# Calu-3 [2] = test: as above
# HepG2 [3] = test: as above
# U2OS [4] = test: as above
# Vero E6 [5] = test: as above
# Calu-3 [6] = test: relative viability EC50 (midpoint between 100% and the lowest measured viability); higher = less toxic
# HepG2 [7] = test: as above
# U2OS [8] = test: as above
# Caco-2 [9] = test: drug sensitivity score (DSS) for viability; higher = more toxic; extreme values may be limits of the assay
# Calu-3 [10] = test: as above
# HepG2 [11] = test: as above
# U2OS [12] = test: as above
# Vero E6 [13] = test: as above
# Caco-2 [14] = test: relative viability EC50 (midpoint between 100% and the lowest measured viability); higher = less toxic
# Vero E6 [15] = test: as above
SMILES,cell viability (Caco-2 [1]; 1 nM) [%],cell viability (Caco-2 [1]; 10 nM) [%],cell viability (Caco-2 [1]; 100 nM) [%],cell viability (Caco-2 [1]; 1000 nM) [%],cell viability (Caco-2 [1]; 10000 nM) [%],cell viability (Calu-3 [2]; 1 nM) [%],cell viability (Calu-3 [2]; 10 nM) [%],cell viability (Calu-3 [2]; 100 nM) [%],cell viability (Calu-3 [2]; 1000 nM) [%],cell viability (Calu-3 [2]; 10000 nM) [%],cell viability (HepG2 [3]; 1 nM) [%],cell viability (HepG2 [3]; 10 nM) [%],cell viability (HepG2 [3]; 100 nM) [%],cell viability (HepG2 [3]; 1000 nM) [%],cell viability (HepG2 [3]; 10000 nM) [%],cell viability (U2OS [4]; 1 nM) [%],cell viability (U2OS [4]; 10 nM) [%],cell viability (U2OS [4]; 100 nM) [%],cell viability (U2OS [4]; 1000 nM) [%],cell viability (U2OS [4]; 10000 nM) [%],cell viability (Vero E6 [5]; 1 nM) [%],cell viability (Vero E6 [5]; 10 nM) [%],cell viability (Vero E6 [5]; 100 nM) [%],cell viability (Vero E6 [5]; 1000 nM) [%],cell viability (Vero E6 [5]; 10000 nM) [%],relative viability EC50 (Calu-3 [6]) [µM],relative viability EC50 (HepG2 [7]) [µM],relative viability EC50 (U2OS [8]) [µM],drug sensitivity score (Caco-2 [9]),drug sensitivity score (Calu-3 [10]),drug sensitivity score (HepG2 [11]),drug sensitivity score (U2OS [12]),drug sensitivity score (Vero E6 [13]),relative viability EC50 (Caco-2 [14]) [µM],relative viability EC50 (Vero E6 [15]) [µM]
O=C1NCCN1CCN1CCC(c2cn(-c3ccc(F)cc3)c3ccc(Cl)cc23)CC1 [sertindole],97.1,98.3,89.1,80.7,56.6,88.1,112,96.9,92.2,90,96.7,105,93.4,87.7,20.9,93.8,95.3,94.6,99.8,81,106,118,105,88.6,64.5,> 10,1.95,> 10,4.6,0.1,6.4,0.5,3.3,,
C[C@@H]1CCO[C@H]2Cn3cc(C(=O)NCc4ccc(F)cc4F)c(=O)c(O)c3C(=O)N12 [dolutegravir],102,94.4,97.6,97.7,88.2,117,113,101,91.1,105,101,114,107,100,57.6,104,103,104,95.6,98.5,97.3,99.7,97,100,81.9,> 10,,> 10,0.1,0,2.1,0,0.4,> 10,> 10
c1ccc(-c2n[nH]c3c2oc2ccccc23)cc1,107,99.4,104,96.8,89.7,89.6,103,102,105,110,104,106,90.1,84,74.5,103,102,98.5,99.6,93.8,91,96.4,91.7,90.1,102,> 10,,> 10,0,0,2.9,0,0,> 10,> 10
Cc1c(N2C(=O)[C@@H]3[C@H](O)CCN3C2=O)ccc(C#N)c1Cl,95.4,100,89.1,93.1,90.3,106,101,97.4,109,105,97.7,95.4,94,93.8,97.1,94.8,99.8,98.6,94.4,97.1,,,,,,> 10,> 10,> 10,0,0,0,0,,> 10,
Cc1cc(O)cc2c1O[C@](C)(CCC[C@H](C)CCC[C@H](C)CCCC(C)C)CC2 [D-delta-tocopherol],102,109,99.8,103,99.1,89.4,96.6,84.8,93.8,79.4,114,110,116,103,99.4,97.7,103,96.9,106,98,,,,,,> 10,> 10,> 10,0,0,0,0,,> 10,
CCOc1nc2c(N)ncnc2n1CC [ANR-94],102,98.3,92.1,90.9,95.1,105,95.1,96.5,95.9,102,102,98.3,97.3,96.9,93.2,104,96.2,101,101,105,,,,,,> 10,> 10,> 10,0,0,0,0,,> 10,
O=C(OCCO)c1ccccc1O [2-hydroxyethyl-salicylate],114,108,100,104,93.3,97.5,95.5,108,108,94.8,103,99.8,108,100,89,99.2,102,98.6,104,97.6,,,,,,> 10,> 10,> 10,0,0,0,0,,> 10,
"OCCCCO [1,4-butanediol]",98.6,112,119,107,102,89.2,98.4,89.4,94,93.7,90.8,97.9,95.7,105,74.4,101,108,96.8,111,97.8,102,102,100,104,93.1,> 10,,> 10,0,0,0.7,0,0,> 10,> 10
C[C@H](c1ccc2ccc(OC3CCC(C(F)(F)F)CC3)c(C(F)(F)F)c2c1)N1C2CCC1CC(C(=O)O)C2 (some centres not stated) [autotaxin-modulator-1],105,91.2,96.1,96.6,83.2,114,97.6,100,106,96.2,90.4,91,105,96,71.9,93.3,95.9,94.3,95.1,83.7,99.2,103,96.4,93.8,89,> 10,,> 10,0.7,0,1.8,0.1,0,> 10,> 10
C#Cc1cncc([C@@H]2CCCN2C)c1 [altinicline],101,92.9,102,98.7,97.7,98.3,99,93.9,102,110,98.5,96.8,106,105,93.5,102,91.9,102,97.4,98.9,,,,,,> 10,> 10,> 10,0,0,0,0,,> 10,
Cc1cc(Nc2cc(C)c(C#N)c(N[C@@H](C)CCCC(C)(C)O)n2)n[nH]1 [TC-A-2317],103,102,94,77.6,25.3,98,89.4,84.7,77.2,40.8,110,103,93.2,62.8,54.3,106,98.2,96.9,68.8,7.2,105,104,96.4,75.7,22,0.799,,1.33,7.2,6.7,7.5,9.4,7.8,1.47,1.4
Cc1ccc(NC(=O)c2cccc(C(C)(C)C#N)c2)cc1Nc1ccc2ncn(C)c(=O)c2c1 [AZ-628],95.8,102,98.2,81.9,63.8,,,,,,97.5,102,69.9,22,16.6,98.7,98.6,93.2,89.7,43.3,101,102,102,84.2,52.4,,0.148,1.81,3.7,,18.1,4.8,4.8,,
CCCNS(=O)(=O)Nc1ncnc(OCCOc2ncc(Br)cn2)c1-c1ccc(Br)cc1 [macitentan],102,99.7,102,104,108,97.2,94.1,105,99,103,99.5,108,92.7,85.5,91,101,99.5,100,99.4,101,,,,,,> 10,> 10,> 10,0,0,1.8,0,,> 10,
C=CCNc1nc(NCC=C)nc(N2CCN(C(c3ccc(F)cc3)c3ccc(F)cc3)CC2)n1 [almitrine],91.3,79.4,102,88.2,87.8,111,96.2,96.5,92,98.2,98.8,92.6,80.9,77.9,61,102,96.1,99.4,94.6,97.9,91.7,107,89.2,95.4,91.2,> 10,,> 10,0.6,0,6.1,0,0.4,> 10,> 10
CCOC(=O)[C@@H](N)CCC(=O)N[C@@H](CSCc1ccccc1)C(=O)N[C@@H](C(=O)OCC)c1ccccc1 [ezatiostat],98.4,93.4,92,91,86.2,97.2,103,106,103,91.2,101,98.8,99.4,97.1,107,96.9,106,96.1,100,95.3,,,,,,> 10,> 10,> 10,0.4,0,0,0,,> 10,
COc1cc(N)c(Cl)cc1C(=O)N[C@@H]1CCN(CCCOc2ccc(F)cc2)C[C@@H]1OC (racemic) [cisapride],99.8,103,100,98.9,90.3,99.6,101,84,107,110,99.7,101,96,104,102,97.4,101,93.8,98.3,93.5,,,,,,> 10,> 10,> 10,0,0,0,0,,> 10,
